From patent publication US5795907A, “Gastin and CCK receptor ligands” (James Black Foundation Limited, priority 1994, dated 1998)

Assays:
[1] = target: T1, CCKB receptor (Mus musculus, UniProt P56481); experiment: CCKB receptor radioligand binding assay in mouse cortical membranes ([125I]-CCK8S); conditions: [125I]-CCK8S 200 pM, 150 min at 21±3°; for Ki: read-out: CCKB pKi (converted)
T1 construct: The cortex was dissected, weighed and homogenised in 40ml ice-cold buffer; tissue Charles River (supplier of the CD1 mice); host or cells: cerebral cortex membranes of male CD1 mice
T1 sequence (P56481 1-453): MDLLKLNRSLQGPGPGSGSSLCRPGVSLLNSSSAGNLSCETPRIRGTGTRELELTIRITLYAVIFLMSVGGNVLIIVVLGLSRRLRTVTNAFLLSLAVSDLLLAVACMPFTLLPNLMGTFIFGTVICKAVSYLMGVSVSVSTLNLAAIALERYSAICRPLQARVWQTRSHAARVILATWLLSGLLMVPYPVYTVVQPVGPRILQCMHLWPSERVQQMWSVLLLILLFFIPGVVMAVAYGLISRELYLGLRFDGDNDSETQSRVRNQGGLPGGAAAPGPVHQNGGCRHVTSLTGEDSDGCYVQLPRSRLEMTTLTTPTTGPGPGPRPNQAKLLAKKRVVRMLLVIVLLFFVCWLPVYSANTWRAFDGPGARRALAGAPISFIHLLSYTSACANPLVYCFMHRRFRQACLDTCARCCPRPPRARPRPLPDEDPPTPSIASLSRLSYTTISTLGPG
Method in brief: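 Cortical membranes from male CD1 mice in HEPES buffer (pH 7.2; NaCl, KCl, MgCl2, EDTA, bacitracin) were incubated with competing compound and [125I]-CCK8S (added as a 200 pM solution) for 150 min at 21±3°. Non-specific binding was defined with L-365,260. Bound tracer was separated by GF/B filtration and counted by gamma counting.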

[2] = target: T2, CCKA (Cavia porcellus, UniProt Q63931); experiment: CCKA radioligand binding assay in guinea-pig pancreas membranes ([125I]-CCK8(S)); conditions: PD134,308 present, 150 minutes at 21±3°; for Ki: read-out: CCKA pKi (converted)
T2 construct: The pancreatata were homogenised in 40 ml ice-cold HEPES buffer using a polytron; from tissue; host or cells: pancreas membranes of male Dunkin Hartley guinea-pigs
T2 sequence (Q63931 1-430): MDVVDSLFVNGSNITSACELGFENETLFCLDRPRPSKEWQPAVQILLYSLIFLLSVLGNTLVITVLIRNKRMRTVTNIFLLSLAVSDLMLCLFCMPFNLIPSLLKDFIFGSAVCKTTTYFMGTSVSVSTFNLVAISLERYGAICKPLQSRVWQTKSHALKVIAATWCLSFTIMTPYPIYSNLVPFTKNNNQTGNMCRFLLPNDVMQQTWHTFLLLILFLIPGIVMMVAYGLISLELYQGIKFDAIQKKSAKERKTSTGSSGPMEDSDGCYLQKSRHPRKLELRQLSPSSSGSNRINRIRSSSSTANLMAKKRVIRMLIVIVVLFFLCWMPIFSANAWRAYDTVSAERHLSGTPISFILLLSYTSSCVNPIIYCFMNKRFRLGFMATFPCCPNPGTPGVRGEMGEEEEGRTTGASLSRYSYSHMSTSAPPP
Method in brief: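 Male guinea-pig pancreas membranes (1 mg/ml wet tissue in HEPES pH 7.2, suspension containing 0.375 μM PD134,308) were incubated 150 min at 21±3° with [125I]-CCK8(S) ([…] added solution) and competitor. Non-specific binding used 100 nM L-364,718 (added solution). Bound radioligand was measured by GF/B filtration and gamma counting.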

[3] = target: T3, gastrin (Rattus norvegicus, UniProt P30553); experiment: gastrin antagonist activity in an immature rat stomach assay (pentagastrin-stimulated acid secretion); conditions: cumulative pentagastrin dose-response curves after 60 min with drug; for Kb: read-out: Gastrin pKB (converted)
T3 construct: The stomach was lowered into a jacketed organ bath containing 40 ml of buffered solution; from tissue; host or cells: isolated perfused whole stomach of immature rats (ca. 21 days old)
T3 sequence (P30553 1-452): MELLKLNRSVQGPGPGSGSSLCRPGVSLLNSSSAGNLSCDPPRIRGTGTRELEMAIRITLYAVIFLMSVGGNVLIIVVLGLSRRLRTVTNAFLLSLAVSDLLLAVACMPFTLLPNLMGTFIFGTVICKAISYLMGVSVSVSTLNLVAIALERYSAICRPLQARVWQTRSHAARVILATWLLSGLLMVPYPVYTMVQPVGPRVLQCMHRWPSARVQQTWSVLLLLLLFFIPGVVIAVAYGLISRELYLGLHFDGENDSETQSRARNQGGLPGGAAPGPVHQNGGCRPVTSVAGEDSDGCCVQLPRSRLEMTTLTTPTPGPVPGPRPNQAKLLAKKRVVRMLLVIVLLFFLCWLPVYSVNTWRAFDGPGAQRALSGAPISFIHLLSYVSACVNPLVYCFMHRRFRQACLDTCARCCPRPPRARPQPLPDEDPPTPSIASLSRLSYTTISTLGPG
Method in brief: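 Isolated lumen-perfused immature rat stomach (33-50 g, ca. 21 days) in 37° organ bath with 3×10^-8 M 5-methylfurmethide; acid secretion read by pH electrode in perfusate. Compound added to serosal bath after 120 min stabilisation; cumulative pentagastrin dose-response curves begun 60 min later and analysed by the Black et al. method.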

## C[C@H](NC(=O)c1cc2[nH]ccc2cc1C(=O)NCC12CC3CC(CC(C3)C1)C2)C(=O)Nc1cc(C(=O)O)cc(C(=O)O)c1 [Example 48, 6-(1S-(3,5-dicarboxyphenylaminocarbonyl)-ethylaminocarbonyl)-5-(1-adamantanemethylaminocarbonyl)-indole]
[1]
  Ki: 631 nM
[2]
  Ki: 3.16 µM
[3]
  Kb: 100 nM

## CC(C)(C)C(=O)OCOC(=O)c1cc(NC(=O)[C@H](Cc2ccccc2)NC(=O)c2cc3cc[nH]c3cc2C(=O)NCC23CC4CC(CC(C4)C2)C3)cc(C(=O)OCOC(=O)C(C)(C)C)c1 [Example 33, 5-(1S-(3,5-dipivaloyloxymethyloxycarbonylphenylaminocarbonyl)-2-phenylethylaminocarbonyl)-6-(1-adamantanemethylaminocarbonyl)-indole]
[1]
  Ki: 2510 nM
[2]
  Ki: 6.31 µM
[3]
  Kb: 20 nM

## Nc1cccc2cc(C(=O)N[C@@H](Cc3ccccc3)C(=O)Nc3cc(C(=O)O)cc(C(=O)O)c3)c(C(=O)NCC34CC5CC(CC(C5)C3)C4)cc12 [Example 115, 2-(1S-(3,5-dicarboxyphenylaminocarbonyl)-2-phenylethylaminocarbonyl)-3-(1-adamantanemethylaminocarbonyl)-5-aminonaphthalene]
[1]
  CCKB pKi: 7.6
[2]
  CCKA pKi: 5.6
[3]
  Gastrin pKB: 8.2

## O=C(O)c1cc(NC(=O)[C@H](Cc2ccccc2)NC(=O)c2cc3[nH]ccc3cc2C(=O)NCC23CC4CC(CC(C4)C2)C3)cc(C(=O)O)c1 [Example 26, 6-(1S-(3,5-dicarboxyphenylaminocarbonyl)-2-phenylethylaminocarbonyl)-5-(1-adamantanemethylaminocarbonyl)-indole]
[1]
  Ki: 12.6 nM
[2]
  Ki: 3.16 µM
[3]
  Kb: 0.501 nM

## COC(=O)[C@@H](C)NC(=O)c1cc2ccccc2cc1C(=O)NCC12CC3CC(CC(C3)C1)C2 [Example 8, 2-(1R-methoxycarbonylethylamino-carbonyl)-3-(1-adamantanemethylaminocarbonyl)-naphthalene]
[1]
  Ki: 5010 nM
[2]
  Ki: 1 µM
[3]
  Kb: 1260 nM

## O=C(O)CNC(=O)[C@@H](Cc1ccccc1)NC(=O)c1cc2cc[nH]c2cc1C(=O)NCC12CC3CC(CC(C3)C1)C2 [Example 91, 5-(1R-(carboxymethylaminocarbonyl)-2-phenylethylaminocarbonyl)-6-(1-adamantanemethylaminocarbonyl)-indole]
[1]
  CCKB pKi: 7.4
[2]
  CCKA pKi: 5.3
[3]
  Gastrin pKB: 8.0

## O=C(O)c1cc(NC(=O)[C@H](Cc2ccccc2)NC(=O)c2c(C(=O)NCC34CC5CC(CC(C5)C3)C4)ccc3[nH]cnc23)cc(C(=O)O)c1 [Example 113, 4-(1S-(3,5-dicarboxyphenylaminocarbonyl)-2-phenylethylaminocarbonyl)-5-(1-adamantanemethylaminocarbonyl)-benzimidazole]
[1]
  CCKB pKi: 6.9
[2]
  CCKA pKi: 5.2
[3]
  Gastrin pKB: 7.2

## C[C@@H](NC(=O)c1cc2ccccc2cc1C(=O)NCC12CC3CC(CC(C3)C1)C2)C(=O)O [Example 5, 2-(1R-carboxyethylamino-carbonyl)-3-(1-adamantanemethylaminocarbonyl)-naphthalene]
[1]
  Ki: 1000 nM
[2]
  Ki: 6.31 µM
[3]
  Kb: 158 nM

## CC(=O)Oc1cc(OC(C)=O)c2cc(C(=O)N[C@@H](Cc3ccccc3)C(=O)Nc3cc(C(=O)O)cc(C(=O)O)c3)c(C(=O)NCC34CC5CC(CC(C5)C3)C4)cc2c1 [Example 53, 3-(1S-(3,5-dicarboxyphenylaminocarbonyl)-2-phenylethylaminocarbonyl)-2-(1-adamantanemethylaminocarbonyl)-5,7-diacetoxy-naphthalene]
[1]
  CCKB pKi: 8.1
[2]
  CCKA pKi: 6.1
[3]
  Gastrin pKB: 7.9

## COC(=O)[C@H]1CCCN1C(=O)c1cc2ccccc2cc1C(=O)NCC12CC3CC(CC(C3)C1)C2 [Example 7, 2-(2R-methoxycarbonylpyrrolidino-carbonyl)-3-(1-adamantanemethylaminocarbonyl)-naphthalene]
[1]
  Ki: 1580 nM
[2]
  Ki: 1.58 µM
[3]
  Kb: 398 nM

## O=C(NCC12CC3CC(CC(C3)C1)C2)c1cc2nc[nH]c2cc1C(=O)N[C@@H](Cc1ccccc1)C(=O)Nc1cc(C=NO)cc(C=NO)c1 [Example 118, 5-(1S-(3,5-dihydroxyiminomethylenephenylaminocarbonyl)-2-phenylethylaminocarbonyl)-6-(1-adamantanemethylaminocarbonyl)-benzimidazole]
[1]
  Ki: 200 nM
[2]
  Ki: 0.501 µM
[3]
  Kb: 200 nM

## O=C(O)c1cc(NC(=O)[C@@H](Cc2ccccc2)NC(=O)c2cc3[nH]cnc3cc2C(=O)NCC23CC4CC(CC(C4)C2)C3)cc(C(=O)O)c1 [Example 61, 5-(1R-(3,5-dicarboxyphenylaminocarbonyl)-2-phenylethylaminocarbonyl)-6-(1-adamantanemethylaminocarbonyl)-benzimidazole]
[1]
  Ki: 3.98 nM
[2]
  Ki: 6.31 µM
[3]
  Kb: 2 nM

## C[C@H](NC(=O)c1cc2[nH]cnc2cc1C(=O)NCC12CC3CC(CC(C3)C1)C2)C(=O)Nc1cc(C(=O)O)cc(C(=O)O)c1 [Example 71, 5-(1S-(3,5-dicarboxyphenylaminocarbonyl)-ethylaminocarbonyl)-6-(1-adamantanemethylaminocarbonyl)-benzimidazole]
[1]
  Ki: 398 nM
[2]
  Ki: 5.01 µM
[3]
  Kb: 100 nM

## 5-(1S-(3,5-dicarboxyphenylaminocarbonyl)-2-(4-hydroxyphenyl)e thylaminocarbonyl)-6-(1-adamantanemethylaminocarbonyl)-indole and regioisomer with substituents at positions 5 and 6 reversed [Example 30]
[1]
  CCKB pKi: 7.6
[2]
  CCKA pKi: 5.2
[3]
  Gastrin pKB: 9.1

## C[C@@H](NC(=O)C[C@@H]1CCCN1C(=O)c1cc2ccccc2cc1C(=O)NCC12CC3CC(CC(C3)C1)C2)C(=O)O [Example 16, 2-(2S-(1R-carboxyethylaminocarbonylmethyl)-pyrrolidinocarbonyl)-3-(1-adamantanemethylaminocarbonyl)-naphthalene]
[1]
  CCKB pKi: 5.6
[2]
  CCKA pKi: 5.5
[3]
  Gastrin pKB: 6.2

## O=C(NCC12CC3CC(CC(C3)C1)C2)c1cc2nc[nH]c2cc1C(=O)N[C@@H](Cc1ccccc1)C(=O)Nc1cc(-c2nn[nH]n2)cc(-c2nn[nH]n2)c1 [Example 80, 5-(1S-(3,5-ditetrazolylphenylaminocarbonyl)-2-phenylethylaminocarbonyl)-6-(1-adamantanemethylaminocarbonyl)-benzimidazole]
[1]
  Ki: 3.98 nM
[2]
  Ki: 0.794 µM
[3]
  Kb: 6.31 nM
